Measurements from ChEMBL document CHEMBL3044794, “Antifungal activity of some tetranortriterpenoids” (2000).

Columns and labels:
Puccinia arachidis [1] = test: Antifungal activity against Puccinia arachidis in ground nut assessed as rust pustule count at 10 ug/cm'2 measured after 12 days from inoculation; format: functional
Puccinia arachidis [2] = test: Antifungal activity against Puccinia arachidis in ground nut assessed as rust pustule count at 1 ug/cm'2 measured after 12 days from inoculation (reference value: 22.73 %); format: functional

| Structure (SMILES) | inhibition (INH) (Puccinia arachidis [1]) [%] | inhibition (INH) (Puccinia arachidis [2]) [%] |
| --- | --- | --- |
| CC(=O)O[C@@H]1C[C@H]2C(C)(C)C(=O)C=C[C@]2(C)[C@H]2CC[C@]3(C)C(=CC(=O)[C@H]3c3ccoc3)[C@@]21C [AZADIRADIONE] | 76.9 | 75.7 |
| CC1(C)C(=O)C=C[C@@]2(C)C1=C(O)C(=O)[C@]1(C)[C@@H]2CC[C@@]2(C)[C@H](c3ccoc3)C[C@H]3O[C@]321 [CEDRELONE] | 93.4 | 98.4 |
| CC(=O)OC1=C2C(C)(C)C(=O)CC[C@]2(C)[C@H]2CC[C@@]3(C)[C@H](c4ccoc4)C[C@H]4O[C@]43[C@]2(C)C1=O [DIHYDROCEDRELONEDIACETATE] | 87 | 77.6 |
| CC1(C)C(=O)CC[C@@]2(C)C1=C(O)C(=O)[C@]1(C)[C@@H]2CC[C@@]2(C)[C@H](c3ccoc3)C[C@H]3O[C@]321 [DIHYDROCEDRELONE] | 66.7 | 42.6 |
| CC1(C)C(=O)C=C[C@@]2(C)C1C(O)(C(=O)O)[C@@]1(C)C[C@@]34O[C@@H]3C[C@@H](c3ccoc3)C4C[C@H]21 (stereo partly drawn) [ISOCEDRELONIC ACID] | 91.4 | 36.9 |
| CC1(C)O[C@H]2CC(=O)OC[C@]23[C@H]2CC[C@@]4(C)[C@H](c5ccoc5)OC(=O)[C@H]5O[C@]54[C@]2(C)C(=O)C[C@@H]13 [LIMONIN] | -15.7 | 67.7 |
| CC1(C)O[C@H]2CC(=O)OC[C@]23[C@H]2CC[C@@]4(C)[C@@H](c5ccoc5)OC(=O)[C@H]5O[C@]54[C@]2(C)[C@H](O)C[C@@H]13 [LIMONOL] | 62.3 | 37.9 |
| COC(=O)C1(O)C2C(C)(C)C(=O)C=C[C@]2(C)[C@H]2CC3[C@H](c4ccoc4)C[C@H]4O[C@@]34C[C@@]21C (stereo partly drawn) [METHYL ISOCEDRELONATE] | 2.3 | 7.6 |
| CC(=O)O[C@H](CC(=O)O)[C@]1(C)[C@H]2CC[C@@]3(C)[C@@H](c4ccoc4)OC(=O)[C@H]4O[C@]43[C@]2(C)C(=O)C[C@H]1C(C)(C)O [NOMILINIC ACID] | 34.2 | 28.5 |
